Test results reported in PMC8448819, “The Arabidopsis MIK2 receptor elicits immunity by sensing a conserved signature from phytocytokines and microbes” (Nature Communications, 2021).

Legend:
Type in all cases: in vivo, Arabidopsis thaliana
[1] = test system: MPK3, MPK4 and MPK6 phosphorylation, WT seedlings; test: MAPK assay (α-pERK1/2 immunoblot), WT; details: Supplementary Fig. 3i
Procedure: Ten-day-old seedlings grown vertically on ½MS plates were transferred to ddH2O overnight for recovery. Then, ddH2O was replaced by 100 nM peptides for the indicated time.

mik2-1 seedling roots = test: Microscopy of root meristems, mik2-1; details: mik2-1, 1 µM, 48 h
[2] = test system: RLK7^ECD-MIK2^TK/rlk7 and RLK7/rlk7 transgenic seedlings; test: ROS assay (luminol), RLK7/rlk7 and RLK7^ECD-MIK2^TK/rlk7 seedlings; details: for ROS production, total: Fig. 1d
Procedure: ROS burst was determined by a luminol-based assay. […] Then, ddH2O was replaced by 200 µL of reaction solution containing 50 µM of luminol, and 10 µg/mL of horseradish peroxidase (Sigma-Aldrich) supplemented with or without 100 nM or 1 μM peptide. Luminescence was measured immediately after adding the solution with a luminometer (Glomax 20/20n, Promega) with a one-second interval for 15 min. The total values of ROS production were indicated as means of the relative light units (RLUs).

Substance: PNGDIFTGPSGSGHGGGR [SCOOP10B, synthesized SCOOP peptide corresponding to the SxS motif]
- MAPK activation in shoots and roots [1]: triggered the MAPK activation in both shoots and roots
- root meristem distortion in mik2-1 (mik2-1 seedling roots): not observed in mik2-1

Substance: RLASGP(OH)SPRGRGH [PIP1, secreted peptide, ligand of RLK7]
- ROS production, total ([2]; RLK7/rlk7 L4, 100 nM PIP1, one-week-old seedlings, repeat 1): 239291 RLU
- ROS production, total ([2]; RLK7/rlk7 L4, 100 nM PIP1, one-week-old seedlings, repeat 2): 252204 RLU
- ROS production, total ([2]; RLK7/rlk7 L4, 100 nM PIP1, one-week-old seedlings, repeat 3): 283681 RLU
- ROS production, total ([2]; RLK7/rlk7 L4, 100 nM PIP1, one-week-old seedlings, repeat 4): 318922 RLU
- ROS production, total ([2]; RLK7/rlk7 L5, 100 nM PIP1, one-week-old seedlings, repeat 1): 275783 RLU
- ROS production, total ([2]; RLK7/rlk7 L5, 100 nM PIP1, one-week-old seedlings, repeat 2): 220663 RLU
- ROS production, total ([2]; RLK7/rlk7 L5, 100 nM PIP1, one-week-old seedlings, repeat 3): 252086 RLU
- ROS production, total ([2]; RLK7/rlk7 L5, 100 nM PIP1, one-week-old seedlings, repeat 4): 358908 RLU
- ROS production, total ([2]; RLK7ECD-MIK2TK/rlk7 L9, 100 nM PIP1, one-week-old seedlings, repeat 1): 1753777 RLU
- ROS production, total ([2]; RLK7ECD-MIK2TK/rlk7 L9, 100 nM PIP1, one-week-old seedlings, repeat 2): 1827311 RLU
- ROS production, total ([2]; RLK7ECD-MIK2TK/rlk7 L9, 100 nM PIP1, one-week-old seedlings, repeat 3): 2926668 RLU
- ROS production, total ([2]; RLK7ECD-MIK2TK/rlk7 L9, 100 nM PIP1, one-week-old seedlings, repeat 4): 3467034 RLU
- ROS production, total ([2]; RLK7ECD-MIK2TK/rlk7 L9, 100 nM PIP1, one-week-old seedlings, repeat 5): 1491639 RLU
- ROS production, total ([2]; RLK7ECD-MIK2TK/rlk7 L16, 100 nM PIP1, one-week-old seedlings, repeat 1): 3868648 RLU
- ROS production, total ([2]; RLK7ECD-MIK2TK/rlk7 L16, 100 nM PIP1, one-week-old seedlings, repeat 2): 1259772 RLU
- ROS production, total ([2]; RLK7ECD-MIK2TK/rlk7 L16, 100 nM PIP1, one-week-old seedlings, repeat 3): 2844613 RLU
- ROS production, total ([2]; RLK7ECD-MIK2TK/rlk7 L16, 100 nM PIP1, one-week-old seedlings, repeat 4): 3037378 RLU
- ROS production, total ([2]; RLK7ECD-MIK2TK/rlk7 L16, 100 nM PIP1, one-week-old seedlings, repeat 5): 940879 RLU
- ROS production ([2]; RLK7/rlk7, 100 nM PIP1): weakly induced ROS production
- ROS production ([2]; RLK7^ECD-MIK2^TK/rlk7, 100 nM PIP1): robust production of ROS
